According to patent US6916604B2, “Uses of synthetic peptides corresponding to telopeptide sequences of cross-linked type I collagen metabolites” (Washington Research Foundation, priority 1987, dated 2005):
No end group written: not given here.

Test system: MAb-1H11
Assay: ELISA of peptides competing against plated-out P1, or plated out as BSA conjugates, for MAb-1H11 binding
Set-up: species or system mouse
Details: for recognition of free cross-linking amino acids by MAb-1H11: made by acid hydrolysis from bone collagen or as present naturally in urine; for recognition by MAb-1H11: ELISA, free peptides competing against plated-out P1, or conjugated to BSA and plated out; for competitive binding with MAb-1H11 (FIG. 9): absorbance at 450 nm of detectable marker bound to plated-out P1 vs concentration of free peptide

## NC(CCc1c[n+](CC(O)CCC(N)C(=O)O)cc(O)c1CC(N)C(=O)O)C(=O)O (stereo not drawn) [HP, hydroxylysyl pyridinoline, reference compound]
  recognition of free cross-linking amino acids by MAb-1H11: not recognized

## NC(CCCC[n+]1cc(O)c(CC(N)C(=O)O)c(CCC(N)C(=O)O)c1)C(=O)O (stereo not drawn) [LP, lysyl pyridinoline, reference compound]
  recognition of free cross-linking amino acids by MAb-1H11: not recognized

## QYDGKGVGC [SEQ ID NO:1]
  recognition by MAb-1H11: not recognized
  competitive binding with MAb-1H11 (FIG. 9): little if any significant competitive binding

## YDEKSTGGC [SEQ ID NO:2]
  recognition by MAb-1H11: not recognized
  competitive binding with MAb-1H11 (FIG. 9): little if any significant competitive binding
